{"source": "patent US8865750B2", "about": "“Small molecule inhibitors of RGS proteins” (The Regents of The University of Michigan, priority 2011, dated 2014)", "key": {"Gα0": {"molecular_target": "Gα0 (Homo sapiens (Human), UniProt P09471)", "sequence (P09471 whole entry)": "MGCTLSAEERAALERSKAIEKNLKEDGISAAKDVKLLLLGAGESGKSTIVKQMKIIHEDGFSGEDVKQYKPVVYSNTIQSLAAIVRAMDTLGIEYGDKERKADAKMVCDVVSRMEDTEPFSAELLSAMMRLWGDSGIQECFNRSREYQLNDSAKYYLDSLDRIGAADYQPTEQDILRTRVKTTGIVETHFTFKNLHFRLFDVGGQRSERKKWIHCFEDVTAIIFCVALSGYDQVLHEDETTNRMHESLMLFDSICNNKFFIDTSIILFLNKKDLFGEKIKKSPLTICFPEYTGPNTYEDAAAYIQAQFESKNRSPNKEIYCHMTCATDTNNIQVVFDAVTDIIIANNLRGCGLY", "assay": "Intrinsic GTP hydrolysis by Gαo (single turnover)", "type": "biochemical", "method": "Single Turnover GTPase Measurements:\nCompounds were tested for the ability to inhibit the RGS4 and RGS8-stimulated increase in GTP hydrolysis by Gα0 as described previously (Roman, D. L., et al., Mol Pharmacol, 2007. 71(1): p. 169-75; Roof, R. A., et al., Chem Biol Drug Des, 2006. 67(4): p. 266-74).\nSingle-turnover GAP assay: Experiments were performed as previously described using purified his6-tagged Gαo (Blazer et al., Biochemistry 50, 3181-3192; Roof et al., (2008) Chem Biol Drug Des 72, 111-119)."}, "M3 muscarinic receptor": {"system": "M3 muscarinic receptor", "assay": "Carbachol-induced Ca2+ response, M3 cells without RGS4 dependence", "type": "cell-based", "details": "for effect on carbachol-induced Ca2+ response (RGS-independent): 10 μM (FIG. 20) or as stated", "method": "Calcium Mobilization Experiments:\n(§1) A stable cell line was developed based upon the HEK-293 Flp-In TREx cell line (Invitrogen, Carlsbad, Calif.) that stably express the muscarinic M3 receptor and have human RGS4 expression under doxycycline control. Cells were maintained in DMEM supplemented with 10% fetal bovine serum and Penicillin (100 units/ml)-Streptomycin (100 μg/ml) under 5% CO2 at 37° C. For experiments, cells were split into 96-well black, clear bottom, poly-D-lysine coated microtiter plates (Nunc, Cat. #152037) at a density of 20,000 cells/well in DMEM containing 10% fetal bovine serum and Penicillin (100 units/ml), Streptomycin (100 μg/ml). RGS4 expression was induced by supplementing the medium with 1 μg/mL doxycycline for 24-48 hours before experimentation. Cells were loaded with Fluo-4 No Wash dye in buffer for 30 minutes at 37° C. Compounds and/or carbachol were added to the wells and the fluorescence intensity was measured using a FlexStation (Molecular Devices, Sunnyvale, Calif.) plate reader. Data analysis was performed by calculating the area under the curve or maximal fluorescence intensity from a 120 second kinetic measurement.\nas §1, with “Calcium signaling transients: A” for “A”, “units/ml)-Streptomycin” for “units/ml), Streptomycin”"}}, "note": "“Also recorded” adds a separate entry of the source."}
{"smiles": "CCCCn1c(=O)sn(CC)c1=O", "note": "[CCG-203769, 2-ethyl-4-butyl-1,2,4-thiadiazolidine-3,5-dione]", "values": [{"measurement": "basal GTPase activity of the G protein", "setting": "Gα0", "result": "without inhibiting the basal GTPase activity"}, {"measurement": "concentration above which carbachol Ca2+ transient is inhibited", "setting": "M3 muscarinic receptor", "result": "> 3", "unit": "µM"}, {"measurement": "effect on carbachol-induced Ca2+ response (RGS-independent)", "setting": "M3 muscarinic receptor", "result": "without affecting M3-mediated calcium signal; also recorded: does not directly affect the carbachol stimulation"}, {"measurement": "effect on carbachol-induced Ca2+ response (RGS-independent)", "setting": "M3 muscarinic receptor; listed as 11b", "result": "no effect"}]}
